These results are taken from ChEMBL document CHEMBL5143619, “Antimicrobial Prenylated Isoflavones from the Leaves of the Amazonian Medicinal Plant Vatairea guianensis Aubl” (J Nat Prod, 2022).

Series [1] relates to HCT-116. As to the kind of experiment: Cytotoxicity against human HCT-116 cells assessed as reduction in cell viability incubated for 24 hrs by CellTiter-Blue cell viability assay. Type of series: functional, cell-based. The settings on record: HCT-116, 24 h. (In general: The colour change of resazurin is a common sign of viable cells or microbes.)
The subject of series [2] is A-375. The experiment in a line: Cytotoxicity against human A-375 cells assessed as reduction in cell viability incubated for 24 hrs by CellTiter-Blue cell viability assay. Type of series: functional, cell-based. The settings on record: A-375, 24 h.
Series [3] in a line: Selectivity index, ratio of IC50 for human HaCaT cells to IC50 for human A-375 cells. The format is toxicity. Conditions: read-out: Ratio IC50.
Series [4] in a line: Selectivity index, ratio of IC50 for human HaCaT cells to IC50 for human HCT-116 cells. The settings on record: read-out: Ratio IC50. Type of series: toxicity.
Series [5] can be described thus: Cytotoxicity against human HaCaT cells assessed as reduction in cell viability incubated for 24 hrs by CellTiter-Blue cell viability assay. The format is toxicity, cell-based.
The subject of series [6] is MDA-MB-231. As to the kind of experiment: Cytotoxicity against human MDA-MB-231 cells assessed as reduction in cell viability incubated for 24 hrs by CellTiter-Blue cell viability assay. The format is functional, cell-based. The settings on record: MDA-MB-231, 24 h.
The nature of series [7]: Selectivity index, ratio of IC50 for human HaCaT cells to IC50 for human MDA-MB-231 cells. The format is toxicity. Conditions: read-out: Ratio IC50.
The subject of series [8] is Cryptococcus neoformans. The experiment in a line: Antifungal activity against Cryptococcus neoformans assessed as fungal growth inhibition incubated for 5 hrs by microplate reader analysis. Type of series: functional, organism-based.
Series [9] in a line: Selectivity index, ratio of IC50 for human HaCaT cells to IC50 for antifungal activity against Cryptococcus neoformans. The format is toxicity. The settings on record: read-out: Ratio IC50.
The subject of series [10] is Staphylococcus aureus. As to the kind of experiment: Antibacterial activity against methicillin-resistant Staphylococcus aureus assessed as bacterial growth inhibition incubated for 5 hrs under shaking condition by resazurin dye based assay. Type of series: functional, organism-based.
Series [11] deals with Enterococcus faecium. The experiment in a line: Antibacterial activity against Enterococcus faecium assessed as bacterial growth inhibition incubated for 5 hrs by bromocresol purple dye based assay. Type of series: functional, organism-based.
Series [12] is described as follows: Selectivity index, ratio of IC50 for human HaCaT cells to IC50 for antifungal activity against Trichophyton rubrum. Type of series: toxicity. The settings on record: read-out: Ratio IC50.
Series [13] can be described thus: Selectivity index, ratio of IC50 for human HaCaT cells to IC50 for antifungal activity against Candida albicans. The settings on record: read-out: Ratio IC50. The format is toxicity.
A short description of series [14]: Selectivity index, ratio of IC50 for human HaCaT cells to IC50 for antibacterial activity against methicillin-resistant Staphylococcus aureus. Type of series: toxicity. The settings on record: read-out: Ratio IC50.
Series [15] relates to Trichophyton rubrum. As to the kind of experiment: Antifungal activity against Trichophyton rubrum assessed as fungal growth inhibition incubated for 72 hrs by microplate reader analysis. Type of series: functional, organism-based.
Series [16] deals with Candida albicans. The experiment in a line: Antifungal activity against Candida albicans assessed as fungal growth inhibition incubated for 5 hrs under shaking condition by resazurin dye based assay. The format is functional, organism-based.
Series [17] in a line: Selectivity index, ratio of IC50 for human HaCaT cells to IC50 for antibacterial activity against Enterococcus faecium. Conditions: read-out: Ratio IC50. The format is toxicity.

For `CC(C)=CCc1c(O)cc(O)c2c(=O)c(-c3ccc(O)cc3)coc12`, the figures for the IC50 in series [1] and in [2] were 187 µM and 88.5 µM, respectively. The selectivity ratio in [3] was 1.8; in [4], 0.9. The IC50 (usually the point on the concentration scale where inhibition reaches its midpoint) at 24 h in [5] is 160 µM.
On to `COc1cc(-c2coc3c(CC=C(C)C)c(O)cc(O)c3c2=O)ccc1O`, for which the values for the IC50 in [1], in [6] and in series [2] were 110 µM, 87.5 µM and 58.2 µM, respectively. For the same compound, the selectivity ratio in series [3] stood at 1.4; in series [7], 1.5; in series [4], 1.9. The IC50 at 24 h in series [5] is 80.7 µM.
As for `CC(C)(O)CCc1c(O)cc(O)c2c(=O)c(-c3ccc(O)cc3)coc12`, the results for the IC50 in [1], in [6] and in series [2] were 222 µM, 154 µM and 160 µM, respectively. For the same compound, the selectivity ratio in series [3] was determined as 0.8; in series [7], 0.9; in series [4], 1.4. Besides, the IC50 at 24 h in [5] was found to be 135 µM.
`COc1ccc(-c2coc3c(CC=C(C)C)c(O)cc(O)c3c2=O)cc1O`: the IC50 was 87.5 µM in series [1]; 13.6 µM in series [8]; 110 µM in series [6]; 58.4 µM in [2]; 6.8 µM in [10]; 12.8 µM in series [11]. In addition, the IC50 stood at 12.2 µM in series [15] and 26.9 µM in [16] (Candida albicans, 5 h). Also, the selectivity ratio worked out at 5.1 in series [9]; 1.2 in series [3]; 0.6 in series [7]; 5.7 in series [12]; 2.6 in [13]; 10.3 in series [14]. In addition, the figures for the selectivity ratio in [4] and in series [17] were 0.8 and 5.5, respectively. Moreover, the IC50 at 24 h in series [5] was 69.8 µM.
In the case of `CC(C)(O)CCc1c(O)cc(O)c2c(=O)c(-c3ccc(O)c(O)c3)coc12`, the IC50 in series [10] is 29.6 µM. Moreover, in series [14], the selectivity ratio was 2.9. Also, the IC50 at 24 h in series [5] was determined as 85.9 µM.
Turning to `COc1cc(-c2coc3c(CCC(C)(C)O)c(O)cc(O)c3c2=O)ccc1O`, the IC50 in series [1] was 234 µM; in series [2], 250 µM; in [10] it was 37 µM; in [11], 80.6 µM. For the same compound, the selectivity ratio was 0.8 in series [3], 5.6 in [14], 0.9 in series [4] and 2.6 in [17]. Besides, in series [5], the IC50 at 24 h was 207 µM.
Turning to `COc1ccc(-c2coc3c(CCC(C)(C)O)c(O)cc(O)c3c2=O)cc1O`, the IC50 in [10] was 49 µM. Also, the selectivity ratio in series [14] is over 5.5.
In the case of `C[C@@H]1[C@H](O)[C@@H](C)/C=C/C=C/C=C/C=C/C=C/C=C/C=C/[C@H](O[C@@H]2O[C@H](C)[C@@H](O)[C@H](N)[C@@H]2O)C[C@@H]2O[C@](O)(C[C@@H](O)C[C@@H](O)[C@H](O)CC[C@@H](O)C[C@@H](O)CC(=O)O[C@H]1C)C[C@H](O)[C@H]2C(=O)O` [AMPHOTERICIN B], in series [8], the IC50 worked out at 0.2 µM.
As for `CC1(C)S[C@@H]2[C@H](NC(=O)[C@H](N)c3ccccc3)C(=O)N2[C@H]1C(=O)O` [AMPICILLIN], in [11], the IC50 came to 0.6 µM.
As for `O=C(N[C@H](CO)[C@H](O)c1ccc([N+](=O)[O-])cc1)C(Cl)Cl` [CHLORAMPHENICOL], the IC50 in series [10] came out at 3.1 µM.
As for `Clc1ccccc1C(c1ccccc1)(c1ccccc1)n1ccnc1` [CLOTRIMAZOLE], the IC50 in series [15] was 0.3 µM.
For the compound `COc1cccc2c1C(=O)c1c(O)c3c(c(O)c1C2=O)C[C@@](O)(C(=O)CO)C[C@@H]3O[C@H]1C[C@H](N)[C@H](O)[C@H](C)O1` [DOXORUBICIN], the half-maximal inhibitory concentration (IC50) in series [1] amounted to 49.5 µM; in [6], 25.8 µM; in series [2] it was 0.4 µM. Besides, in series [5], the IC50 at 24 h came to 50 µM.
For the compound NYSTATIN, the IC50 in [16] came to 1.3 µM.
